Experimental data as given in patent publication US12048679B2, “P53-destabilizing protein associated with proto-oncogene stemness as a therapeutic target and inhibitors thereof for use in treatment of cancer” (University of Southern California, priority 2021, dated 2024).
Entries after “also recorded” stand apart in the source; their conditions may differ.

Columns and labels:
[1] = molecular target: T1, TBC1D15-NOTCH interaction (Homo sapiens, UniProt Q8TC07); experiment: Fluorescence polarization assay of FITC-tagged NOTCH1 PEST/STR domain peptide with recombinant TBC1D15; type: binding; settings: FIG. 7C left
T1 sequence (Q8TC07 1-691): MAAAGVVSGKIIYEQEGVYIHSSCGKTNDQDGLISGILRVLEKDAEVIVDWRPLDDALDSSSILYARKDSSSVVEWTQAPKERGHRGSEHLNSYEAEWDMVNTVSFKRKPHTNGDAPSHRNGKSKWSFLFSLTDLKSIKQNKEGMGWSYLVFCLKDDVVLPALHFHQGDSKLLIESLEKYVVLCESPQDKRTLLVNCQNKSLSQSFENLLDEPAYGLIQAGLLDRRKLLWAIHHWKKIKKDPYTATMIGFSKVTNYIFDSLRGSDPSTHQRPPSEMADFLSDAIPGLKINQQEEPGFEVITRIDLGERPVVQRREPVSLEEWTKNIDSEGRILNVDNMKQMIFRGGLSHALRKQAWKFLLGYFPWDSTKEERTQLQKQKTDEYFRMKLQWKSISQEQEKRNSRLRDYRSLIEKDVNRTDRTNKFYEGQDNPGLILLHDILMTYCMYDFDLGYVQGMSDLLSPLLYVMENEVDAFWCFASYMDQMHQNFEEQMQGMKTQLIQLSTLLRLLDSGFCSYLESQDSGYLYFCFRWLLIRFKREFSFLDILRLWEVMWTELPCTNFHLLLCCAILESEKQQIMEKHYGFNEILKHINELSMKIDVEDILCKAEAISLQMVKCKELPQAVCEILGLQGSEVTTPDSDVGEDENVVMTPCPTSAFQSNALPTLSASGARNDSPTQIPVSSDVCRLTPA
Excerpt: FIGS. 7A-7G depict that activated NOTCH can be targeted by small molecule inhibitors. • (7A) Analyses of 3D structure of TBC1D15-NOTCH1 interaction identified TBC1D15 N terminal region docking with a.a.1805-2113 of NOTCH1. […] See SEQ ID NOs:6-12 and 1, as depicted. Both were labeled with FITC and used with recombinant TBC1D15 for fluorescence polarization assay. The mutant served as a negative control. […] HA-NUMB-3D is HA-tagged phosphor-mimetic mutant of NUMB protein wherein three serine resides of phosphorylation sites are all replaced with phosphor-mimetic amino acid, D (aspartic acid), to have constitutively phosphorylated status of NUMB protein that reduce the binding ability between NOTCH and NUMB. […]
In some embodiments, an inhibitor of TBC1D15 is a compound that inhibits binding of TBC1D15 with NOTCH, or inhibits the interaction between TBC1D15 and NOTCH. […] In yet another aspect, the inhibitor of TBC1D15 can be identified through a fluorescence polarization assay, wherein a fluorophore-labeled, binding domain of NOTCH1 (e.g., the STR domain or the PEST domain, or a peptide fragment thereof, within NICD) would have an increased fluorescence polarization (FP) when it is non-covalently bound to TBC1D15, as depicted in FIG. 7B, or a decreased FP when it is not bound to TBC1D15 due to the presence of an inhibitor of TBC1D15. […]

[2] = test system: CD133-positive TICs / CD133+ Huh7 cells; experiment: Viability screening, CD133-positive cells; type: cell-based; settings: FIG. 7C middle
[3] = test system: CD133-negative TICs / CD133− Huh7 cells; experiment: Viability screening, CD133-negative control cells; type: cell-based; settings: FIG. 7C middle
primary hepatocytes = experiment: Viability of primary hepatocytes; type: cell-based; settings: FIG. 7C middle
Excerpt: (§1) FIGS. 7A-7G depict that activated NOTCH can be targeted by small molecule inhibitors. • (7A) Analyses of 3D structure of TBC1D15-NOTCH1 interaction identified TBC1D15 N terminal region docking with a.a.1805-2113 of NOTCH1. […] See SEQ ID NOs:6-12 and 1, as depicted. Both were labeled with FITC and used with recombinant TBC1D15 for fluorescence polarization assay. The mutant served as a negative control. […] HA-NUMB-3D is HA-tagged phosphor-mimetic mutant of NUMB protein wherein three serine resides of phosphorylation sites are all replaced with phosphor-mimetic amino acid, D (aspartic acid), to have constitutively phosphorylated status of NUMB protein that reduce the binding ability between NOTCH and NUMB. […] We then tested the therapeutic efficacy of the Inhibitor A in the PDX model of HCC. When the two oncogenic targets were restored by use of AAV vector-mediated co-transduction of both activated N1ICD and phosphormimetic NUMB, the tumor-killing effect of Inhibitor A was negated. Inhibitor A's tumor killing effects are largely dependent upon the inhibition of NOTCH activation and suppressing NUMB phosphorylation status.

[4] = test system: HEY1-CFP reporter (NOTCH-CFP); experiment: HEY1-CFP (NOTCH-CFP) reporter in Huh7 cell line, FACS; type: cell-based; settings: FIG. 7C right
NANOG-GFP reporter = NANOG-GFP reporter in Huh7 cell line, FACS; type: cell-based; settings: FIG. 7C right
dsRed-labeled TICs = experiment: Tumor growth of dsRed-labeled TICs transplanted subcutaneously into NSG mice; type: in vivo; settings: for tumors with fluorescence emission (dsRed imaging): FIG. 7E
Excerpt: as §1
We tested the therapeutic efficacy of Inhibitor A in the patient-derived xenograft (PDX) model of HCC. […] A separate pharmacokinetic study was conducted at three doses (10, 20, 40 mg/kg) administered i.p. into NSG mice to determine blood and tissue levels of the Inhibitor and tissue histology. From these studies, we assessed pharmacokinetic, toxicity, and efficacy data to select an optimal dosing scheme.

patient HCC = experiment: Patient-derived xenograft (PDX) model of HCC in NSG mice; type: in vivo
Excerpt: as §1
PDX mice were treated with the optimum dosing schedule. We monitored tumor sizes weekly three weeks post-transplantation for a total of 4 weeks (until the end of week 7). (If the tumor size reaches a diameter of ≥1.5 cm before 7 wk, we euthanized the mice per the IACUC guideline for tumor-bearing mice.) Our prior experience with the untreated HCC PDX model is 5-7 weeks are needed to generate tumors of the desired size (FIG. 7F). […]
To test the therapeutic efficacy of the new inhibitor for its effect on TBC1D15-NICD interaction, we employed a true patient-derived xenograft (PDX) HCC model (FIG. 7F). We determined if newly identified small molecule inhibitors of the TBC1D15-NICD interaction would prevent tumor growth in the HCC PDX mouse model and specifically if this therapeutic effect was negatively affected by NICD expression, NUMB-3D expression, or the co-expression of NICD and NUMB-3D.

[5] = test system: p53, N1ICD and NANOG protein levels; experiment: Immunoblots of xenograft tumors; type: in vivo, NSG mice; settings: Inhibitor A-treated xenograft tumors, FIG. 7G
Excerpt: as §1
PDX mice were treated with the optimum dosing schedule. We monitored tumor sizes weekly three weeks post-transplantation for a total of 4 weeks (until the end of week 7). (If the tumor size reaches a diameter of ≥1.5 cm before 7 wk, we euthanized the mice per the IACUC guideline for tumor-bearing mice.) Our prior experience with the untreated HCC PDX model is 5-7 weeks are needed to generate tumors of the desired size (FIG. 7F). Experimental animals were euthanized at the end of the seven weeks study period and all tumor tissues were collected for histology for tumor characterization. Immunoblots were used to detect levels of for NANOG, TBC1D15, NICD, HES1 or HEY, CD133, p53, NUMB, and pS265-NUMB (FIG. 7G). Immunohistochemistry analysis was performed to monitor the expression of CD133, NANOG, p53, and Ki67.

[6] = test system: NOTCH1 (NICD level) in CD133(+) or (−) TICs; experiment: NOTCH1 processing: NICD produced after EDTA and DAPT treatment, Western blot; type: cell-based; settings: 20 μM DAPT (4 h) with 5 mM EDTA (20 min), CD133-positive and negative TICs
Protocol: FIGS. 1M and 1N depict that TBC1D15 affects NOTCH1 processing. • (1M) Western blot analysis for expression of endogenous NOTCH1 and N1ΔE-myc tag in CD133-positive and negative TICs, transfected with N1ΔE-FL and N1ΔE-ΔPEST and treated with vehicle or 20 μM DAPT (for 4 h), and 5 mM EDTA (for 20 min). • (1N) Western blot analysis for endogenous NOTCH1 and N1ΔE-myc tag in CD133-positive and negative TICs, transfected with N1ΔE-FL, N1ΔE-ΔPEST, and N1ΔE-V1745L (inhibition of gamma-secretase cleavage) and treated with vehicle or 20 μM DAPT.
Pin1 is known to promote tumor formation by binding to the NOTCH/NICD STR domain and regulating its activity. To determine how TBC1D15 affects NOTCH1 activity, we tested whether it regulates NOTCH1 processing through a combination of a disintegrin and metalloproteinase (ADAM) 17 and γ-secretase. We overexpressed a membrane-tethered, ligand-independent wild type NOTCH1, a NOTCH1 derivative [NΔE, that is constitutively cleaved by γ-secretase, releasing active NICD (Rustighi et al., EMBO Mol Med 6, 99-119. 10.1002/emmm.201302909)], NΔE-ΔPEST, and NΔE-V1745L in CD133(+) or (−) TICs. We then analyzed the effects of TBC1D15 on endogenous NOTCH1 processing by measuring the amount of NICD produced after ethylenediaminetetraacetic acid (EDTA) and DAPT treatment in vitro.

With `O=C(O)CCC/C=C\C[C@@H]1[C@@H](CC[C@@H](O)CCc2ccccc2)[C@H](O)C[C@@H]1O` [Inhibitor A, (5Z,9α, 11α, 15R)-9,11,15-Trihydroxy-17-phenyl-18,19,20-trinor-prost-5-en-1-oic acid] the “inhibition of NOTCH-TBC1D15 interaction” value [1] was “effectively blocked the NOTCH-TBC1D15 interaction; also recorded: suppressed interaction between TBC1D15 and NICD; also recorded: blocked NOTCH1/3-TBC1D15 interactions”, the “toxicity to CD133-positive cells” value [2] was “selectively killed CD133 positive TICs; also recorded: selectively kills CD133^+ Huh7 cells” and the “toxicity to CD133-negative cells” value [3] was “not CD133^− Huh7 cells”. For the same compound, the “toxicity to primary hepatocytes” value (primary hepatocytes) was “not CD133^− Huh7 cells or primary hepatocytes”, the “NOTCH-CFP / HEY1 promoter reporter activity” value [4] was “reduced HEY1 and NANOG promoter activities; also recorded: abrogates NOTCH-CFP and NANOG-GFP reporter activities” and the “NANOG-GFP / NANOG promoter reporter activity” value (NANOG-GFP reporter) was “reduced HEY1 and NANOG promoter activities; also recorded: abrogates NOTCH-CFP and NANOG-GFP reporter activities”. The “tumors with fluorescence emission (dsRed imaging)” value (dsRed-labeled TICs; 10 mg/kg dose) was “Tumors with fluorescence emission were detected”, the “inhibition of tumor growth” value (dsRed-labeled TICs; 40 mg/kg i.p. 5 times a week) was “significant inhibition of tumor growth” and the “effect on tumor growth” value (dsRed-labeled TICs; dose series, NSG mice with dsRed-labeled TICs, FIG. 7D) was “dose-dependent inhibitory effect”. The “tumors with fluorescence emission (dsRed imaging)” value (dsRed-labeled TICs; doses higher than 10 mg/kg) was “not in those treated with higher doses”, the “growth suppression of patient HCC after N1ICD and HA-NUMB-3D co-transduction” value (patient HCC; HCC tissues infected with AAV vector delivering N1ICD and HA-NUMB-3D before transplantation) was “this effect largely diminished” and the “therapeutic effect under NICD overexpression” value (patient HCC; NICD overexpression) was “NICD overexpression blocked the therapeutic effect”. For the same compound, the “growth of patient HCC transplanted into NSG mice” value (patient HCC; PDX model, FIG. 7F) was “suppressed the growth of patient HCC”, the “N1ICD protein level in xenograft tumors” value [5] was “reduced N1ICD and NANOG protein levels” and the “NANOG protein level in xenograft tumors” value [5] was “reduced N1ICD and NANOG protein levels”. The “p53 protein level in xenograft tumors” value [5] was “elevated p53 protein level”.

In the case of `C[C@H](NC(=O)Cc1cc(F)cc(F)c1)C(=O)N[C@H](C(=O)OC(C)(C)C)c1ccccc1` [DAPT, N—[N-(3,5-Difluorophenacetyl)-L-alanyl]-S-phenylglycine t-butyl ester], the “effect on NICD level” value [6] is reported as “no observed effect on NICD level”.
